Columns and labels:
glu-Pg = biological target: T1, glu-Pg (Homo sapiens, UniProt P00747); test: Reaction of MG-modified Pg with activating enzymes (STK, tPA, uPA), SDS-PAGE and silver staining; type: biochemical; settings: for Pn heavy and light chain bands versus unmodified gel: MG-modified Pg, higher concentration of MG, up to 90 minutes
T1 construct: Glu-Pg, uPA, tPA, fibrinogen, and chromogenic substrate for Pn were purchased from Molecular Innovations (Novi, Mich.); purchased Molecular Innovations (Novi, Mich.)
Procedure: Physiologically relevant concentrations (Chaplen et al., 1998, Ahmed et al., 2002) of MG were utilized for all LC-MS/MS, silver stain and enzyme inhibition analyses of Pg. glu-Pg (10 μg) was incubated with MG (1-500 μM) at 37° C. for 24 Hrs. Samples for STK assay were further processed before being resolved on a 12% SDS-PAGE gel following removal from 37° C. oven.
Upon removal from the 37° C. oven, Pg was buffer exchanged in a 3-kDa spin-filter (Amicon YM-3; Millipore)) to ensure the removal of MG from the sample. Following centrifugation, the volume of each sample was brought to 150 μL, and divided into five 30 μL samples for different incubations. STK (3U), tPA (100 nM) or uPA (100 nM) was used per sample. STK, tPA or uPA was incubated with Pg for 0, 5, 15, 30, 60, or 90 min. At the conclusion of the enzyme incubation, samples were denatured with 5% BME and heated for 5 minutes at 100° C. on a heat block prior to being resolved on a 12% SDS-PAGE gel.
Gels were stained using a modified version of the method from (Blum et al., 1987). Gel was fixed overnight in a solution of 50% MeOH, 12% glacial acetic acid, and 0.0185% formaldehyde. The gel was washed 2×20 min with 50% EtOH followed by 20 minutes with 30% EtOH. The gel was subjected to a pretreatment solution of 0.2 mg/ml of sodium thiosulfate (Na2S2O3) for 1 minute and was rinsed 3×20 sec with MilliQ H2O. […] Following two 20-second MilliQ H2O washes, the gel was immediately developed with a solution of 60 mg/ml Na2CO3, 4 μg/ml sodium thiosulfate, and 0.0185% formaldehyde until protein bands were visible. Upon acceptable staining progression, the gel was rinsed twice for 2 min with MilliQ H2O before the reaction was stopped with a solution of 50% MeOH and 12% glacial acetic acid. Gel was washed and stored in 50% MeOH. Gel was imaged with a ChemiDoc XRS System (BioRad).

HSA drug site I = biological target: T2, HSA drug site I (Homo sapiens, UniProt P02768); test: Prodan displacement assay; type: binding; settings: prodan-HSA 75 μM; 30 min; fluorescence 465 nm emission
T2 construct: purchased Sigma-Aldrich A3782
Procedure: A solution of human serum albumin (HSA) (20 ml at 10 mg/ml) in 1×PBS pH 7.4 was prepared. A slurry (10 ml) of Lipidex-1000 in methanol was buffer exchanged into 1×PBS and the buffer decanted from the aqueous slurry. The HSA solution was added to the slurry and the mixture was rotated at room temperature for 30 min. The Lipidex slurry was completely removed from HSA by plunging through a 0.22 μm filter using a 60 ml syringe. Prodan (25 mg) was dissolved in of 40% ethanol, 60% methanol (5 ml at a final concentration is 5 mg/ml). A portion (10 ml) of delipidated HSA (10 mg/ml) was incubated with 666.7 μl of the prodan solution (1:10 molar ratio HSA:prodan), and this mixture was rotated at room temperature for 30 minutes. The HSA-prodan mixture was placed on dry ice and acetone precipitated by adding 40 ml of acetone at −20° C., which was mixed and centrifuged at 3000×g for 10 min to pellet the precipitated HSA-prodan. Two additional washes of cold acetone were used to remove any free prodan. The HSA pellet was brought to 10 ml with PBS and mixed and resuspended.
A 2-fold serial dilution of MG in 1×PBS pH 7.4 was prepared starting from a stock solution of 10 mM. […] An aliquot (300 μl) of each reaction was read using a Gemini XPS Fluorescence Microplate Reader (Molecular Devices) in endpoint mode with 360 nm excitation, 420 nm filter cut-off, and 465 nm emission.

T1 sequence (P00747 20-810 limits assumed): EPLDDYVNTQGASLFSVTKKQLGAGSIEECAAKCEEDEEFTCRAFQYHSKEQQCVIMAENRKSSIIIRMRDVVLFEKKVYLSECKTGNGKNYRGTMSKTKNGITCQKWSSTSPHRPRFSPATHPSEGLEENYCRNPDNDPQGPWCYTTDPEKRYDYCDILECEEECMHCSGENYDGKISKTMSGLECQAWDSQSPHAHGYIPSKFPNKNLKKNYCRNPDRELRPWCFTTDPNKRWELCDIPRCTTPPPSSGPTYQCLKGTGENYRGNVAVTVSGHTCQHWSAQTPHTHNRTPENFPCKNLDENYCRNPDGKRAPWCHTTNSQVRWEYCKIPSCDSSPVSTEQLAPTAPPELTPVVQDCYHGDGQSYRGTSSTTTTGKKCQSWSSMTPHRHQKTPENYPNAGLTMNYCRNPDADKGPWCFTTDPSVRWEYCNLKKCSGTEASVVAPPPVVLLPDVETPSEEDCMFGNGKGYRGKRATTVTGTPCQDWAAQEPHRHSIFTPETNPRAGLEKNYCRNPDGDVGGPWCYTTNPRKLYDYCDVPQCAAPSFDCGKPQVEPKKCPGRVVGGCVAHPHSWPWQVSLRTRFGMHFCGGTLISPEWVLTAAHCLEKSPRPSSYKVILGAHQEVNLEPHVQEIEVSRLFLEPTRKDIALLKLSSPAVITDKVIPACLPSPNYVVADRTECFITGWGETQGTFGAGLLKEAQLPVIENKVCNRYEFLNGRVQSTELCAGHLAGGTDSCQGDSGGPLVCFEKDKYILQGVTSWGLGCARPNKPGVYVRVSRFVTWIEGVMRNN
T2 sequence (P02768 25-609): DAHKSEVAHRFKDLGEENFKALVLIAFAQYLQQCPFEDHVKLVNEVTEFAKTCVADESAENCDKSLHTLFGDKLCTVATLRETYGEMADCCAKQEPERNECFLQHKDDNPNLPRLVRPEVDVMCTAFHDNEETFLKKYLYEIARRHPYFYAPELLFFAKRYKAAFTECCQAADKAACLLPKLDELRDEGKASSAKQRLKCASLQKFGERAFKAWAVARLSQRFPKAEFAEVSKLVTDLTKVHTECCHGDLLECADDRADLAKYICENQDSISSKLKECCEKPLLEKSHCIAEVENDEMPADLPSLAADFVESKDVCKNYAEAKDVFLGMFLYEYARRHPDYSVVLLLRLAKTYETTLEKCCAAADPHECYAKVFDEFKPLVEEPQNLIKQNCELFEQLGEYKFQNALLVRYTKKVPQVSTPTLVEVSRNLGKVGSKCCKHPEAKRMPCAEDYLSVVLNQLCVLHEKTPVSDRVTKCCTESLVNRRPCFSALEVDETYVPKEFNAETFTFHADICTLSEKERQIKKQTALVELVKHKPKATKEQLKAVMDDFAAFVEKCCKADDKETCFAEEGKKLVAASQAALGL

For CC(=O)C=O [MG, Methylglyoxal], the “Activation of Pg by STK (cleavage products on silver-stained gel)” value (glu-Pg; 24-hr 100 μM MG-modified glu-Pg, STK 0 to 60 min) was “inhibited”, the “Pn heavy and light chain bands versus unmodified gel” value (glu-Pg; tPA) was “lesser amounts” and the “Pn heavy and light chain bands versus unmodified gel” value (glu-Pg; uPA) was “lesser amounts”. The “MG concentrations that displace prodan from prodan-HSA complex” value (HSA drug site I) was “above 300 μM”.
